Patent publication US8686044B2, “Amide derivative, pest control agent containing the amide derivative, and use of the amide derivative” (Mitsui Chemicals Agro, Inc., priority 2008, dated 2014)

Key:
Type in all cases: in vivo
Plutella xylostella = test: Pesticidal test against Plutella xylostella (cabbage leaf dip); conditions: foliar, 144 h, concentration 1 ppm, 2-stage larvae, examined after 6 days, 25° C., read-out: pesticidal rate
Procedure, shortened: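 Cabbage leaf pieces dipped 30 s in test solution at a predetermined concentration, air-dried, then offered to 2nd-instar larvae, five per group in duplicate. Held at 25° C; living and dead larvae counted after 6 days.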

Spodoptera litura = test: Pesticidal test against Spodoptera litura (cabbage leaf dip); conditions: foliar, 144 h, concentration 1 ppm, 2-stage larvae, examined after 6 days, 25° C., read-out: pesticidal rate
Procedure, shortened: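 Cabbage leaf pieces dipped 30 seconds in compound solution at a predetermined concentration and air-dried, then offered to second-stage larvae, five per group in two replicates. Held at 25° C. Living and dead larvae counted after 6 days.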

Choristoneura magnanima = test: Pesticidal test against Choristoneura magnanima (artificial feed dip); conditions: 144 h, 2-stage larvae, examined after 6 days, 25° C., read-out: pesticidal rate; for pest or weed control at 1 ppm: concentration 1 ppm
Procedure, shortened: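 Thin artificial feed slices dipped 30 s in compound solution at a set concentration, air-dried, then offered to 2nd-stage larvae held at 25° C. Living and dead larvae counted after 6 days; five larvae per group, two replicates.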

Helicoverpa armigera = test: Pesticidal test against Helicoverpa armigera (cabbage leaf disk dip); conditions: foliar, 72 h, concentration 1 ppm, 2-stage larvae, examined after 3 days, 25° C., read-out: pesticidal rate
Procedure, shortened: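 Cabbage leaf disks were dipped for 30 s in test solution at a set concentration and air-dried. Second-instar larvae were placed one per hole and held at 25 °C, with live and dead counts taken after 3 days. Five larvae per group were tested in two replicates.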

Blattella germanica = test: Pesticidal test against Blattella germanica (petri dish dry film); conditions: 24 h, concentration 100 ppm, female adults, examined after 1 day, 25° C., read-out: pesticidal rate
Procedure, shortened: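 Acetone solution of test compound at a predetermined concentration dried as a film in a 9 cm petri dish; female adult cockroaches released onto it and kept at 25° C. Living and dead counted after 1 day; five insects per group, two replicates.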

Adoxophyes honmai = test: Pesticidal test against Adoxophyes honmai (artificial feed dip); conditions: 144 h, 2-stage larvae, examined after 6 days, 25° C., read-out: pesticidal rate; for pest or weed control at 10 ppm: concentration 10 ppm; for pest or weed control at 1 ppm: concentration 1 ppm
Procedure, shortened: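 Thin artificial feed slices dipped 30 s in test solution at a predetermined concentration, air-dried, then offered to 2nd-stage larvae. Kept at 25° C; live and dead larvae counted after 6 days. Five larvae per group, two replicates.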

Laodelphax striatellus = test: Pesticidal test against Laodelphax striatellus (rice seedling spray); conditions: 144 h, concentration 100 ppm, 3-stage larvae, examined after 6 days, 25° C., read-out: pesticidal rate
Procedure, shortened: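 Rice seedlings sprayed with 2.5 ml acetone solution of compound at a predetermined concentration, air-dried, then infested with third-stage Laodelphax striatellus larvae in capped water-containing tubes at 25 °C. Living and dead insects counted after 6 days; ten larvae per group, two replicates.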

Musca domestica = test: Pesticidal test against Musca domestica (petri dish dry film); conditions: 24 h, concentration 100 ppm, female adults, examined after 1 day, 25° C., read-out: pesticidal rate
Procedure, shortened: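 Dry film from 1 ml acetone solution of compound at a predetermined concentration, air-dried in a 9 cm petri dish; female adult flies released and dish capped. Held at 25° C; living and dead counted after 1 day. Five insects per group, two replicates.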

N#Cc1ccc(C(=O)Nc2cccc(C(=O)Nc3c(Br)cc(C(F)(C(F)(F)F)C(F)(F)C(F)(F)F)cc3C(F)(F)F)c2)cc1 (stereo not shown) [6-367]
≥ 70%: pest or weed control at 1 ppm (Plutella xylostella) | pest or weed control at 1 ppm (Spodoptera litura) | pest or weed control at 1 ppm (Choristoneura magnanima) | pest or weed control at 1 ppm (Helicoverpa armigera) | pest or weed control at 100 ppm (Blattella germanica) | pest or weed control at 10 ppm (Adoxophyes honmai)

O=C(Nc1c(Br)cc(C(F)(C(F)(F)F)C(F)(F)C(F)(F)F)cc1C(F)(F)F)c1cccc(NC(=O)c2cccnc2Cl)c1 (stereo not shown) [6-382]
≥ 70%: pest or weed control at 100 ppm (Laodelphax striatellus) | pest or weed control at 1 ppm (Plutella xylostella) | pest or weed control at 1 ppm (Spodoptera litura) | pest or weed control at 10 ppm (Choristoneura magnanima; concentration 10 ppm) | pest or weed control at 1 ppm (Helicoverpa armigera) | pest or weed control at 100 ppm (Musca domestica) | pest or weed control at 100 ppm (Blattella germanica) | pest or weed control at 1 ppm (Adoxophyes honmai)

O=C(Nc1cccc(C(=O)Nc2c(I)cc(C(F)(C(F)(F)F)C(F)(F)F)cc2C(F)(F)F)c1)c1cccc(F)c1 [6-426]
≥ 70%: pest or weed control at 1 ppm (Plutella xylostella) | pest or weed control at 1 ppm (Spodoptera litura) | pest or weed control at 1 ppm (Choristoneura magnanima) | pest or weed control at 1 ppm (Helicoverpa armigera) | pest or weed control at 100 ppm (Musca domestica) | pest or weed control at 100 ppm (Blattella germanica) | pest or weed control at 10 ppm (Adoxophyes honmai)

O=C(Nc1cccc(C(=O)Nc2c(I)cc(C(F)(C(F)(F)F)C(F)(F)F)cc2C(F)(F)F)c1)c1ccc(F)cc1 [6-427]
≥ 70%: pest or weed control at 100 ppm (Laodelphax striatellus) | pest or weed control at 1 ppm (Plutella xylostella) | pest or weed control at 1 ppm (Spodoptera litura) | pest or weed control at 1 ppm (Choristoneura magnanima) | pest or weed control at 1 ppm (Helicoverpa armigera) | pest or weed control at 100 ppm (Musca domestica) | pest or weed control at 100 ppm (Blattella germanica) | pest or weed control at 1 ppm (Adoxophyes honmai)

O=C(Nc1cccc(C(=O)Nc2c(Br)cc(C(F)(C(F)(F)F)C(F)(F)F)cc2Br)c1F)c1cccc(F)c1 [6-1106]
≥ 70%: pest or weed control at 100 ppm (Laodelphax striatellus) | pest or weed control at 1 ppm (Plutella xylostella) | pest or weed control at 1 ppm (Spodoptera litura) | pest or weed control at 1 ppm (Choristoneura magnanima) | pest or weed control at 1 ppm (Helicoverpa armigera) | pest or weed control at 100 ppm (Blattella germanica) | pest or weed control at 1 ppm (Adoxophyes honmai)

N#Cc1cccc(C(=O)Nc2cccc(C(=O)Nc3c(I)cc(C(F)(C(F)(F)F)C(F)(F)C(F)(F)F)cc3I)c2F)c1 (stereo not shown) [6-1358]
≥ 70%: pest or weed control at 100 ppm (Laodelphax striatellus) | pest or weed control at 1 ppm (Plutella xylostella) | pest or weed control at 1 ppm (Spodoptera litura) | pest or weed control at 1 ppm (Choristoneura magnanima) | pest or weed control at 1 ppm (Helicoverpa armigera) | pest or weed control at 100 ppm (Musca domestica) | pest or weed control at 100 ppm (Blattella germanica) | pest or weed control at 1 ppm (Adoxophyes honmai)

O=C(Nc1cccc(C(=O)Nc2c(Br)cc(C(F)(C(F)(F)F)C(F)(F)F)cc2C(F)(F)F)c1F)c1ccc(F)cc1 [6-1577]
≥ 70%: pest or weed control at 100 ppm (Laodelphax striatellus) | pest or weed control at 1 ppm (Plutella xylostella) | pest or weed control at 1 ppm (Spodoptera litura) | pest or weed control at 1 ppm (Choristoneura magnanima) | pest or weed control at 1 ppm (Helicoverpa armigera) | pest or weed control at 100 ppm (Musca domestica) | pest or weed control at 100 ppm (Blattella germanica) | pest or weed control at 10 ppm (Adoxophyes honmai)

O=C(Nc1c(Br)cc(C(F)(C(F)(F)F)C(F)(F)F)cc1C(F)(F)F)c1cccc(NC(=O)c2c(F)cccc2F)c1F [6-1596]
≥ 70%: pest or weed control at 100 ppm (Laodelphax striatellus) | pest or weed control at 1 ppm (Plutella xylostella) | pest or weed control at 1 ppm (Spodoptera litura) | pest or weed control at 1 ppm (Choristoneura magnanima) | pest or weed control at 1 ppm (Helicoverpa armigera) | pest or weed control at 100 ppm (Musca domestica) | pest or weed control at 100 ppm (Blattella germanica) | pest or weed control at 1 ppm (Adoxophyes honmai)

O=C(Nc1cccc(C(=O)Nc2c(I)cc(C(F)(C(F)(F)F)C(F)(F)F)cc2C(F)(F)F)c1F)c1ccccc1 [6-1730]
≥ 70%: pest or weed control at 100 ppm (Laodelphax striatellus) | pest or weed control at 1 ppm (Plutella xylostella) | pest or weed control at 1 ppm (Spodoptera litura) | pest or weed control at 1 ppm (Choristoneura magnanima) | pest or weed control at 1 ppm (Helicoverpa armigera) | pest or weed control at 100 ppm (Musca domestica) | pest or weed control at 100 ppm (Blattella germanica) | pest or weed control at 1 ppm (Adoxophyes honmai)

O=C(Nc1cccc(C(=O)Nc2c(I)cc(C(F)(C(F)(F)F)C(F)(F)F)cc2C(F)(F)F)c1F)c1cccc(F)c1 [6-1732]
≥ 70%: pest or weed control at 100 ppm (Laodelphax striatellus) | pest or weed control at 1 ppm (Plutella xylostella) | pest or weed control at 1 ppm (Spodoptera litura) | pest or weed control at 1 ppm (Choristoneura magnanima) | pest or weed control at 1 ppm (Helicoverpa armigera) | pest or weed control at 100 ppm (Musca domestica) | pest or weed control at 100 ppm (Blattella germanica) | pest or weed control at 1 ppm (Adoxophyes honmai)

N#Cc1cccc(C(=O)Nc2cccc(C(=O)Nc3c(I)cc(C(F)(C(F)(F)F)C(F)(F)F)cc3C(F)(F)F)c2F)c1 [6-1750]
≥ 70%: pest or weed control at 100 ppm (Laodelphax striatellus) | pest or weed control at 1 ppm (Plutella xylostella) | pest or weed control at 1 ppm (Spodoptera litura) | pest or weed control at 1 ppm (Choristoneura magnanima) | pest or weed control at 1 ppm (Helicoverpa armigera) | pest or weed control at 100 ppm (Musca domestica) | pest or weed control at 100 ppm (Blattella germanica) | pest or weed control at 1 ppm (Adoxophyes honmai)

N#Cc1ccc(C(=O)Nc2cccc(C(=O)Nc3c(I)cc(C(F)(C(F)(F)F)C(F)(F)F)cc3C(F)(F)F)c2F)cc1 [6-1751]
≥ 70%: pest or weed control at 100 ppm (Laodelphax striatellus) | pest or weed control at 1 ppm (Plutella xylostella) | pest or weed control at 1 ppm (Spodoptera litura) | pest or weed control at 1 ppm (Choristoneura magnanima) | pest or weed control at 1 ppm (Helicoverpa armigera) | pest or weed control at 100 ppm (Musca domestica) | pest or weed control at 100 ppm (Blattella germanica)

CN(C(=O)c1ccc(Cl)nc1)c1cccc(C(=O)Nc2c(Br)cc(C(F)(C(F)(F)F)C(F)(F)C(F)(F)F)cc2C(F)(F)F)c1 (stereo not shown) [7-389]
≥ 70%: pest or weed control at 100 ppm (Laodelphax striatellus) | pest or weed control at 1 ppm (Plutella xylostella) | pest or weed control at 1 ppm (Spodoptera litura) | pest or weed control at 1 ppm (Choristoneura magnanima) | pest or weed control at 1 ppm (Helicoverpa armigera) | pest or weed control at 100 ppm (Musca domestica) | pest or weed control at 100 ppm (Blattella germanica)

CN(C(=O)c1ccccc1)c1cccc(C(=O)Nc2c(I)cc(C(F)(C(F)(F)F)C(F)(F)C(F)(F)F)cc2C(F)(F)F)c1 (stereo not shown) [7-502]
≥ 70%: pest or weed control at 1 ppm (Plutella xylostella) | pest or weed control at 1 ppm (Spodoptera litura) | pest or weed control at 1 ppm (Choristoneura magnanima) | pest or weed control at 1 ppm (Helicoverpa armigera) | pest or weed control at 100 ppm (Blattella germanica) | pest or weed control at 1 ppm (Adoxophyes honmai)

CN(C(=O)c1ccc(F)cc1)c1cccc(C(=O)Nc2c(I)cc(C(F)(C(F)(F)F)C(F)(F)C(F)(F)F)cc2C(F)(F)F)c1 (stereo not shown) [7-505]
≥ 70%: pest or weed control at 1 ppm (Plutella xylostella) | pest or weed control at 1 ppm (Spodoptera litura) | pest or weed control at 1 ppm (Choristoneura magnanima) | pest or weed control at 1 ppm (Helicoverpa armigera) | pest or weed control at 100 ppm (Blattella germanica) | pest or weed control at 1 ppm (Adoxophyes honmai)

CN(C(=O)c1ccc(F)cc1)c1cccc(C(=O)Nc2c(Br)cc(C(F)(C(F)(F)F)C(F)(F)F)cc2Br)c1F [7-1107]
≥ 70%: pest or weed control at 100 ppm (Laodelphax striatellus) | pest or weed control at 1 ppm (Plutella xylostella) | pest or weed control at 1 ppm (Spodoptera litura) | pest or weed control at 1 ppm (Choristoneura magnanima) | pest or weed control at 1 ppm (Helicoverpa armigera) | pest or weed control at 100 ppm (Musca domestica) | pest or weed control at 100 ppm (Blattella germanica)

CN(C(=O)c1cccc(C#N)c1)c1cccc(C(=O)Nc2c(Br)cc(C(F)(C(F)(F)F)C(F)(F)F)cc2C(F)(F)F)c1F [7-1594]
≥ 70%: pest or weed control at 100 ppm (Laodelphax striatellus) | pest or weed control at 1 ppm (Plutella xylostella) | pest or weed control at 1 ppm (Spodoptera litura) | pest or weed control at 1 ppm (Choristoneura magnanima) | pest or weed control at 1 ppm (Helicoverpa armigera) | pest or weed control at 100 ppm (Blattella germanica) | pest or weed control at 1 ppm (Adoxophyes honmai)
